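Following 48 hours of exposure in 96-well plates, responses at five concentrations were used to interpolate endpoints linearly. GI50: concentration for 50% inhibition of growth. Definition used: TGI = concentration required for complete inhibition of growth.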
Assays:
Assay in all cases: DTP human tumour cell line panel, 48 h
[1] = test system: EKVX NSCLC
[2] = test system: BT-549 breast
[3] = test system: A549 NSCLC
[4] = test system: NCI-H226 lung
[5] = test system: U251 CNS
[6] = test system: NCI-H23 lung
[7] = test system: IGROV1 ovarian
[8] = test system: SF-268 CNS
[9] = test system: M14 melanoma
[10] = test system: MDA-MB-231 breast
[11] = test system: OVCAR-4 ovarian
[12] = test system: SW-620 colon
[13] = test system: MCF7 breast
[14] = test system: SF-295 CNS
[15] = test system: UO-31 renal
[16] = test system: SK-MEL-5 melanoma
[17] = test system: HT29 colon
[18] = test system: SK-OV-3 ovarian
[19] = test system: HOP-92 NSCLC
[20] = test system: HCC-2998 colon
[21] = test system: HS 578T breast
[22] = test system: MALME-3M melanoma
[23] = test system: RPMI-8226 leukemia
[24] = test system: DU-145 prostate
[25] = test system: SNB-75 CNS
[26] = test system: ACHN renal
[27] = test system: K-562 leukemia
[28] = test system: SNB-19 CNS

## N[C@@H](Cc1c[nH]c2ccccc12)C(=O)NC1CCN(Cc2c[nH]c3ccc(Cl)cc23)CC1
[1]
  TGI: 25.1 µM
[2]
  GI50: 16 µM
  TGI: 34.4 µM
[3]
  GI50: 13.9 µM
  TGI: 27.5 µM
[4]
  GI50: 15.4 µM
  TGI: 34.1 µM
[5]
  GI50: 10.6 µM
  TGI: 22.7 µM
[6]
  GI50: 15.3 µM
  TGI: 30.7 µM
[7]
  GI50: 8.78 µM
  TGI: 23.4 µM
[8]
  GI50: 7.74 µM
  TGI: 22 µM
[9]
  GI50: 6.4 µM
  TGI: 19.5 µM
[10]
  GI50: 2.32 µM
  TGI: 6 µM
[11]
  GI50: 8.14 µM
  TGI: 22 µM
[12]
  GI50: 4.79 µM
  TGI: 16.8 µM
[13]
  GI50: 5.63 µM
  TGI: 20.9 µM
[14]
  GI50: 6.34 µM
  TGI: 20.1 µM
[15]
  GI50: 13 µM
  TGI: 26.4 µM
[16]
  GI50: 13.1 µM
  TGI: 25.9 µM
[17]
  GI50: 10.8 µM
  TGI: 23.5 µM
[18]
  GI50: 14.6 µM
  TGI: 28.1 µM
[19]
  GI50: 3.86 µM
  TGI: 17.2 µM
[20]
  GI50: 3.3 µM
  TGI: 13.4 µM
[21]
  GI50: 7.63 µM
  TGI: 24.5 µM
[22]
  GI50: 1.86 µM
  TGI: 3.98 µM
[23]
  GI50: 6.23 µM
  TGI: 23.3 µM
[24]
  GI50: 8.76 µM
  TGI: 21.2 µM
[25]
  GI50: 11.6 µM
  TGI: 29.1 µM
[26]
  GI50: 13.4 µM
  TGI: 27.7 µM
[27]
  GI50: 2.72 µM
  TGI: 12.5 µM
[28]
  GI50: 10.4 µM
  TGI: 23.9 µM

Source: PubChem BioAssay (NCI)
